Measurements as given in ChEMBL document CHEMBL1152560, “Substituted 2-arylbenzothiazoles as kinase inhibitors: hit-to-lead optimization” (Bioorg Med Chem, 2009).

Legend:
[1] = target: Mitogen-activated protein kinase 11 (Homo sapiens) (UniProt Q15759); test: Residual activity of p38beta at 1 uM by microplate scintillation counting
[2] = target: T1, Eukaryotic elongation factor 2 kinase (Homo sapiens) (UniProt O00418); test: Residual activity of EEF2K at 10 uM by microplate scintillation counting
T1 sequence (whole entry): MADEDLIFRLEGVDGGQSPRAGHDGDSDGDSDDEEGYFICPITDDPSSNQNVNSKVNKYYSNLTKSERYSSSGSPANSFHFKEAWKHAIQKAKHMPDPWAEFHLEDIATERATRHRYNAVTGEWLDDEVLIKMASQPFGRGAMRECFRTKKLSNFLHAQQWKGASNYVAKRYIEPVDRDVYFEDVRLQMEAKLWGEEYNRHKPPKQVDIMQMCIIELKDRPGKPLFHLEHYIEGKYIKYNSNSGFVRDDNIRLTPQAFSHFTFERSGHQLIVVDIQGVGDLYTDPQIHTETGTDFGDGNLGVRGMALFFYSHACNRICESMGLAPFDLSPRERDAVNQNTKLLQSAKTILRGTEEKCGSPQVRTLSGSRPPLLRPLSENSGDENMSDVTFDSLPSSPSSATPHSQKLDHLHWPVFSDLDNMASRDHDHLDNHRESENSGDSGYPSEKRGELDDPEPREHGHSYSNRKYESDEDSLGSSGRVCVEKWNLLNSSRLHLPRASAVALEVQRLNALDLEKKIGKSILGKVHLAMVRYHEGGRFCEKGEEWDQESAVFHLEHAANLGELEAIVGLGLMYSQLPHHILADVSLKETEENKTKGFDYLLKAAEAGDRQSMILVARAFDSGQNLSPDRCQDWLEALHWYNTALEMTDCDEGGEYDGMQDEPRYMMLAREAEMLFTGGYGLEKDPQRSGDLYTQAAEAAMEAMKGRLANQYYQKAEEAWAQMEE

[3] = target: MAP/microtubule affinity-regulating kinase 3 (Homo sapiens) (UniProt P27448); test: Residual activity of MARK3 at 1 uM by microplate scintillation counting
Sequence of MAP/microtubule affinity-regulating kinase 3 (Homo sapiens) (P27448 whole entry, looked up): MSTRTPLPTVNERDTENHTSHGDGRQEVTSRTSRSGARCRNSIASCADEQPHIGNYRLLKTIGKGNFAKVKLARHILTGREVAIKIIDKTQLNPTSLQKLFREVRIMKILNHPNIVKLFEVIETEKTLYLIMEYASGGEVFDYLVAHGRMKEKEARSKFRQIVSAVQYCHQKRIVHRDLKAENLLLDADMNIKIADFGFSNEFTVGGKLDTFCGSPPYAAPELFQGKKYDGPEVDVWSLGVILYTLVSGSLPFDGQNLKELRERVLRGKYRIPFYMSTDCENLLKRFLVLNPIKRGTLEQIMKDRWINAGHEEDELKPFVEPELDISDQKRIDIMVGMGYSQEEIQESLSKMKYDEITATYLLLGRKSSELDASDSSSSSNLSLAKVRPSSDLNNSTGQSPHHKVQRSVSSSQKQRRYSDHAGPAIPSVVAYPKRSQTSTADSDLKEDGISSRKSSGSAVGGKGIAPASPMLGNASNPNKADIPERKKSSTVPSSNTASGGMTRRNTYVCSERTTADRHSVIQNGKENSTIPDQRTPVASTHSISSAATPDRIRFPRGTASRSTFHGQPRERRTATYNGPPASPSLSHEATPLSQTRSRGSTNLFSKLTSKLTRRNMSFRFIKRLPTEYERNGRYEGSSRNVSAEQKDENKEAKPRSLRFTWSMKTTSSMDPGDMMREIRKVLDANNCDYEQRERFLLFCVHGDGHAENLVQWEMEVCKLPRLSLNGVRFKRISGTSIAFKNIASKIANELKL

[4] = target: Ribosomal protein S6 kinase alpha-2 (Homo sapiens) (UniProt Q15349); test: Residual activity of RPS6KA2 at 0.1 uM by microplate scintillation counting
Sequence of Ribosomal protein S6 kinase alpha-2 (Homo sapiens) (Q15349 whole entry): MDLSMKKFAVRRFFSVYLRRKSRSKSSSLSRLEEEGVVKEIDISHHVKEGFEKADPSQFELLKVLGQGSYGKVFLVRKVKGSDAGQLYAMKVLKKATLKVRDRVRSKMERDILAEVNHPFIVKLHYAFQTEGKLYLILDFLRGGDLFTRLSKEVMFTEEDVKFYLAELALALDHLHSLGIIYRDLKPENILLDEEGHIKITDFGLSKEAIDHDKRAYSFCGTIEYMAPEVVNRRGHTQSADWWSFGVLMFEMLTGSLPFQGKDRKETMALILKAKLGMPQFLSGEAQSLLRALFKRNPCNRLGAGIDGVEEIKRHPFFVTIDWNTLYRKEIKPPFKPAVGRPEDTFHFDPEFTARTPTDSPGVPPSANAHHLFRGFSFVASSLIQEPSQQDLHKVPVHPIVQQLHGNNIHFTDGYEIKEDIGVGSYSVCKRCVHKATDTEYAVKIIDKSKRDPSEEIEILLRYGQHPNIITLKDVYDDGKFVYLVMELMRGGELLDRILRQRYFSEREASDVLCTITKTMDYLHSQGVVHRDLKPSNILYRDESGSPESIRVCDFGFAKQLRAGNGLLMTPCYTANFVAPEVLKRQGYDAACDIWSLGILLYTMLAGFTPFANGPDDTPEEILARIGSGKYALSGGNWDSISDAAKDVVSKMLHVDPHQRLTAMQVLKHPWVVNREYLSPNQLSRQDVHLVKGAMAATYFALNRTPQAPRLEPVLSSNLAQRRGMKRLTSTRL

[5] = target: T2, Lymphokine-activated killer T-cell-originated protein kinase (Homo sapiens) (UniProt Q96KB5); test: Residual activity of PBK at 1 uM by microplate scintillation counting
T2 sequence (whole entry): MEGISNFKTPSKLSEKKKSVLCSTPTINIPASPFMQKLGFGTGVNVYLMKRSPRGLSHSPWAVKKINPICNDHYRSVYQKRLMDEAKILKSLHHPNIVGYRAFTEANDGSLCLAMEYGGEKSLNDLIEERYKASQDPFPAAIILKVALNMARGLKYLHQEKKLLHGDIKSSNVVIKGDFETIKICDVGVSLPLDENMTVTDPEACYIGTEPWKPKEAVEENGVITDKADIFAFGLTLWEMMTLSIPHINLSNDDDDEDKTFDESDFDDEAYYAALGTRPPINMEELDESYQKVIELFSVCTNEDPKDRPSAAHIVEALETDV

[6] = target: CDK4/Cyclin D3 (Homo sapiens) (UniProt P11802+P30281); test: Residual activity of CDK4/Cyclin D3 at 10 uM by microplate scintillation counting; assay type: protein-complex assay
[7] = target: Homeodomain-interacting protein kinase 3 (Homo sapiens) (UniProt Q9H422); test: Residual activity of HIPK3 at 0.1 uM by microplate scintillation counting
[8] = target: Mast/stem cell growth factor receptor Kit (Homo sapiens) (UniProt P10721); test: Residual activity of wild type KIT at 1 uM by microplate scintillation counting
[9] = target: T3, G protein-coupled receptor kinase 3 (Homo sapiens) (UniProt P35626); test: Residual activity of GRK3 at 1 uM by microplate scintillation counting
T3 sequence (whole entry): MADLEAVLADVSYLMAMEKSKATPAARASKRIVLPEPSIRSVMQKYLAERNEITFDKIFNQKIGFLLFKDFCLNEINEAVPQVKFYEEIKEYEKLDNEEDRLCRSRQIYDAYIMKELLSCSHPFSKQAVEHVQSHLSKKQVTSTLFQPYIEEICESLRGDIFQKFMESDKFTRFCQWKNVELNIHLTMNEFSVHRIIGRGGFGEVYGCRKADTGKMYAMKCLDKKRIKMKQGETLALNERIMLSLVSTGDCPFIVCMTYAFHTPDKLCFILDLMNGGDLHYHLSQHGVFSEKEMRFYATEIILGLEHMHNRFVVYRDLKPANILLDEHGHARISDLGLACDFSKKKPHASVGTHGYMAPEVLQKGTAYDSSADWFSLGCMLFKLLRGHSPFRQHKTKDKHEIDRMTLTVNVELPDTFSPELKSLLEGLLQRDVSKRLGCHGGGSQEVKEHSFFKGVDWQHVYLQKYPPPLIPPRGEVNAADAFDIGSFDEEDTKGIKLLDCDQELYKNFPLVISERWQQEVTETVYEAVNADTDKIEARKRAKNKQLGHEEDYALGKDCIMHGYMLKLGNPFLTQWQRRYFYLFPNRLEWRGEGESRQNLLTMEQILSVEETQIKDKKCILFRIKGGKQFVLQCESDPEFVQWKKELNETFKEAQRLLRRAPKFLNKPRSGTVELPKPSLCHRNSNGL

[10] = target: Ephrin type-A receptor 4 (Homo sapiens) (UniProt P54764); test: Residual activity of EPHA4 at 10 uM by microplate scintillation counting
[11] = target: 3-phosphoinositide-dependent protein kinase 1 (Homo sapiens) (UniProt O15530); test: Residual activity of PDK1 at 10 uM by microplate scintillation counting
Sequence of 3-phosphoinositide-dependent protein kinase 1 (Homo sapiens) (O15530 whole entry, looked up): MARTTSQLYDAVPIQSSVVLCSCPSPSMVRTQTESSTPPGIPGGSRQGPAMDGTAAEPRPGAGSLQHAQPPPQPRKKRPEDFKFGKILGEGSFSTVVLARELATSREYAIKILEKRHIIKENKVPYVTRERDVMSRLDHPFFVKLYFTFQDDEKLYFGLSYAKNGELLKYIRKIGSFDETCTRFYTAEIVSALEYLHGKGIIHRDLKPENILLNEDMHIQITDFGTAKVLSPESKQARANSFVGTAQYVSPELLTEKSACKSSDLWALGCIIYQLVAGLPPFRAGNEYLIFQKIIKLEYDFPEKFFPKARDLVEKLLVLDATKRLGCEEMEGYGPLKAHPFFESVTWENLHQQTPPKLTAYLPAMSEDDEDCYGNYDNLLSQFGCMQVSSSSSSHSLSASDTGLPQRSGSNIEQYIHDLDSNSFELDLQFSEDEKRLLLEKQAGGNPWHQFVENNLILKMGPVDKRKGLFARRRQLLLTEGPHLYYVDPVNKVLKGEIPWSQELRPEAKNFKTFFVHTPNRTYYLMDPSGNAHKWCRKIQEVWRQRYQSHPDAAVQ

[12] = target: Mitogen-activated protein kinase 10 (Homo sapiens) (UniProt P53779); test: Residual activity of JNK3 at 1 uM by microplate scintillation counting
[13] = target: Non-receptor tyrosine-protein kinase TYK2 (Homo sapiens) (UniProt P29597); test: Residual activity of TYK2 at 0.1 uM by microplate scintillation counting
Sequence of Non-receptor tyrosine-protein kinase TYK2 (Homo sapiens) (P29597 whole entry): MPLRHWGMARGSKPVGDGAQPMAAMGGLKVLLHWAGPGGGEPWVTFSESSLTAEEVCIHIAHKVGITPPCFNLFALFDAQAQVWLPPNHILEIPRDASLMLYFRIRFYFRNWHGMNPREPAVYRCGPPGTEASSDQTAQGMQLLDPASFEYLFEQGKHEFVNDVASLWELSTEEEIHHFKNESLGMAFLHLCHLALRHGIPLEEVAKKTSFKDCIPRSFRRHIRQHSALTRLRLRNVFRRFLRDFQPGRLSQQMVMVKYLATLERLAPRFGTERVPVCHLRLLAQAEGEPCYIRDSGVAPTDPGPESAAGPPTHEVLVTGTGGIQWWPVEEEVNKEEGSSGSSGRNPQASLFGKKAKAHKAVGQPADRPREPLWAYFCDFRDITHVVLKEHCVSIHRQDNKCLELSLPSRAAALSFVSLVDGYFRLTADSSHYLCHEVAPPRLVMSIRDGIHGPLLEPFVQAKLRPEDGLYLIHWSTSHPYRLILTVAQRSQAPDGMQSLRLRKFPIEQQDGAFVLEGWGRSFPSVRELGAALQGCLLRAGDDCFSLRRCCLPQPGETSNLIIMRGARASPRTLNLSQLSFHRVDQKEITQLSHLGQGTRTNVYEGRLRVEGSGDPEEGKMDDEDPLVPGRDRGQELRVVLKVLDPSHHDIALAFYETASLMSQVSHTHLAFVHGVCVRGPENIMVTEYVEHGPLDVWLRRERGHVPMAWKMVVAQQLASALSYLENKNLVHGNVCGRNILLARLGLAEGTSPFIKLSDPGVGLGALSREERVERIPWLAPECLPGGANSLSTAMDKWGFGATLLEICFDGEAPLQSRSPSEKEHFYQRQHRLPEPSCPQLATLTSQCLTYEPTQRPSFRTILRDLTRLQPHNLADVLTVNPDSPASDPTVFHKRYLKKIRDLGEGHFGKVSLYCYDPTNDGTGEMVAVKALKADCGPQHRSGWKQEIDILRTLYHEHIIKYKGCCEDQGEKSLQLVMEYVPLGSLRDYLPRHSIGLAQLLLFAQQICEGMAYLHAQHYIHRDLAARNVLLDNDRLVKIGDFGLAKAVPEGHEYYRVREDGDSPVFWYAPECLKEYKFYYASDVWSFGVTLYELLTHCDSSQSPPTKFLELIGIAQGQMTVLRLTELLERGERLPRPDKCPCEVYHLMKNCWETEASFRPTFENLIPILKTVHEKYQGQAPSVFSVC

[14] = target: Vascular endothelial growth factor receptor 3 (Homo sapiens, UniProt P35916); test: Residual activity of VEGFR3 at 10 uM by microplate scintillation counting
Sequence of Vascular endothelial growth factor receptor 3 (P35916 whole entry): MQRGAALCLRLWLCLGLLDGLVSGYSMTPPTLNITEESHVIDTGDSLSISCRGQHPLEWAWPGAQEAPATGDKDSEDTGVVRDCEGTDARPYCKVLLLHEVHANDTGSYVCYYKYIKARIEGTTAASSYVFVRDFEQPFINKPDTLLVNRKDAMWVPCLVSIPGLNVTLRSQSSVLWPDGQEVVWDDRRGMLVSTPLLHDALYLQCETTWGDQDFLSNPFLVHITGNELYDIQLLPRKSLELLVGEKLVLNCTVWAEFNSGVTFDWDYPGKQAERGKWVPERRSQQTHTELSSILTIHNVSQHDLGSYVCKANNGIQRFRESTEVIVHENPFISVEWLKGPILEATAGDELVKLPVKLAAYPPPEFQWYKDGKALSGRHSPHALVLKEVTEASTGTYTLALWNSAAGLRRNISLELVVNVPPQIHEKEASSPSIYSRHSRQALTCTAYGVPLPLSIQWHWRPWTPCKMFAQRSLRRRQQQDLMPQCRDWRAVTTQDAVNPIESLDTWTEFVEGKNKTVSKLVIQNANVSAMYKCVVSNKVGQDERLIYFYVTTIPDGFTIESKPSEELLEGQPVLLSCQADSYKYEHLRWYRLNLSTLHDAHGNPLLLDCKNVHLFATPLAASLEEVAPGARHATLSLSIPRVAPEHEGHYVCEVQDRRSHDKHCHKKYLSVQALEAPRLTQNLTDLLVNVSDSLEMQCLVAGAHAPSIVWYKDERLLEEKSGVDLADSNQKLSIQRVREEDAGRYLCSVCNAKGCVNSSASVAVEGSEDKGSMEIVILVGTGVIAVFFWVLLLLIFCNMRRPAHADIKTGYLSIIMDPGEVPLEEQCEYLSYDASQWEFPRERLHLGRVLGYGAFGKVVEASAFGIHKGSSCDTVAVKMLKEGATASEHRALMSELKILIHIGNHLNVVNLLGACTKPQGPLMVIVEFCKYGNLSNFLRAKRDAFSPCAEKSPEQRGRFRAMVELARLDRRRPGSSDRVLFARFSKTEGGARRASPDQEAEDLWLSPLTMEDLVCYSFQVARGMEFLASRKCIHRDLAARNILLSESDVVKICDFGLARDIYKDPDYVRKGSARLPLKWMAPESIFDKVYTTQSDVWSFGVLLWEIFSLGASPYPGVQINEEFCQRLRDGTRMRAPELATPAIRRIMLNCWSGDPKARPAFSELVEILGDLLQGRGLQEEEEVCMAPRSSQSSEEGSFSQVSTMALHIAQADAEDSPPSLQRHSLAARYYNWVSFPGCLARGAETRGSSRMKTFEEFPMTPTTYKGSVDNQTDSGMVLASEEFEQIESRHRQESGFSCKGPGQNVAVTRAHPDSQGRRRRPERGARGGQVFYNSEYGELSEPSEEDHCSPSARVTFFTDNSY

[15] = target: Serine/threonine-protein kinase B-raf (Homo sapiens) (UniProt P15056); test: Residual activity of Wild type B-RAF at 1 uM by microplate scintillation counting
[16] = target: Serine/threonine-protein kinase N2 (Homo sapiens) (UniProt Q16513); test: Residual activity of PRK2 at 10 uM by microplate scintillation counting

Sequence of Mitogen-activated protein kinase 11 (Homo sapiens) (Q15759 whole entry): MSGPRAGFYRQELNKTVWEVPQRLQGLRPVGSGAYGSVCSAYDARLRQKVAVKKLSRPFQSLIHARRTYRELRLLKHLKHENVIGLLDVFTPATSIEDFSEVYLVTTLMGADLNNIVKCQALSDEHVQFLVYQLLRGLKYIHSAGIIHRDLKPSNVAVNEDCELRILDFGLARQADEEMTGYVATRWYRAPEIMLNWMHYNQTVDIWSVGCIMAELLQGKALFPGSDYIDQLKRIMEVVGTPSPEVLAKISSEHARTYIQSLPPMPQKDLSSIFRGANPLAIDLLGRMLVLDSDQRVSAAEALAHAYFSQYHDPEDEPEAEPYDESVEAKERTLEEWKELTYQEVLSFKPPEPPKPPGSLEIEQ

| residual activity [1] | residual activity [2] | residual activity [3] | residual activity [4] | residual activity [6] | residual activity [7] | residual activity [8] | residual activity [9] | residual activity [10] | residual activity [11] | residual activity [12] | residual activity [13] | residual activity [14] | residual activity [15] | residual activity [16] | Structure (SMILES) | residual activity [5] |
| --- | --- | --- | --- | --- | --- | --- | --- | --- | --- | --- | --- | --- | --- | --- | --- | --- |
| 125% | 104% | 91% | 92% | 98% | 92% | 129% | 98% | 94% | 66% | 97% | 94% | 6% | 77% | 85% | COc1cc2c(Oc3ccc(-c4nc5ccccc5s4)cc3)ncnc2cc1OCCCN1CCCC1 | 103% |
| 126% | 91% | 93% | 90% | 105% | 88% | 124% | 102% | 112% | 67% | 106% | 90% | 4% | 79% | 95% | COc1cc2c(Oc3ccc(-c4nc5ccccc5s4)cc3)ncnc2cc1OCCCN1CCN(C)CC1 | 100% |
| 129% | 120% | 91% | 91% | 93% | 93% | 128% | 103% | 47% | 61% | 101% | 102% | 4% | 83% | 75% | COc1cc2c(Oc3ccc(-c4nc5ccccc5s4)cc3F)ncnc2cc1OCCCN1CCN(C)CC1 | 96% |
